According to PMC9203742 (Nature Communications, 2022):
Values joined by “and” are separate entries in the source; they are usually repeats but may differ in a detail not shown here. Equal entries are not always repeated.

Columns and labels:
[1] = test system: mGlu1 construct not given; assay: Fura-2 Ca2+ imaging in HEK293 cells, source data Suppl Fig1, middle group (c9-c17); construct not given; type: cell-based, rat; parameters: unit not given here; conditions: single-cell values, cells #15-#20; middle group of third block; listed as Glu
Text: (§1) Supplement 41467_2022_30828_MOESM6_ESM.zip/Ojima et al_source data_Suppl Fig.xlsx, sheet "Suppl Fig1" | column: Glu; NiCl2; CuCl2; ZnCl2; CdCl2; Na2PdCl2; Pd(bpy)

[2] = test system: HEK293 cells, vector control; assay: Fura-2 Ca2+ imaging in HEK293 cells transfected with control vector (Vec); type: cell-based; conditions: single-cell values #1-#20, listed as Glu
[3] = test system: mGlu1 construct not given; assay: Fura-2 Ca2+ imaging in HEK293 cells, source data Suppl Fig1, right group (c18-c26); construct not given; type: cell-based, rat; parameters: unit not given here; conditions: single-cell values, cells #15-#20; right group of third block; listed as Glu
Text: as §1

[4] = test system: mGlu1 construct not given; assay: Fura-2 Ca2+ imaging in HEK293 cells, source data Suppl Fig1, left group (c0-c8); construct not given; type: cell-based, rat; parameters: unit not given here; conditions: single-cell values, cells #15-#20; left group of third block; listed as Glu
Text: as §1

[5] = test system: HEK293 cells, control vector; assay: Inositol-1-phosphate (IP1) accumulation assay, HEK293 cells transfected with control vector; type: cell-based; conditions: 100 µM Glu; Vec; listed as Glu

N[C@@H](CCC(=O)O)C(=O)O [glutamate, reference compound]
Ca2+ response of individual cells (source data, sheet Suppl Fig1) [1]: 0.1431 and 0.7212 and 0.03709 and 0.1609 and 0.01695 and 0.7758 | Ca2+ response of individual cells (source data Suppl Fig1), Vec [2]: 0.01056 and 0.06409 and 0.01964 and 0.006185 and 0.01272 and 0.02269 and 0.02795 and 0.001992 and 0.03471 and 0.04057 and 0.0119 and 0.01116 and 0.01651 and 0.008954 and 0.06266 and 0.02138 and 0.004577 and 0.01188 and 0.01429 and 0.0107 | Ca2+ response of individual cells (source data, sheet Suppl Fig1) [3]: 0.5202 and 0.5869 and 0.3843 and 0.3042 and 0.505 and 0.02158 | Ca2+ response of individual cells (source data, sheet Suppl Fig1) [4]: 0.1813 and 0.3548 and 0.1848 and 0.1996 and 0.1287 and 0.1577 | IP1 accumulation, single experiments [5]: 1.025 and 1.123 and 0.98
